Reference: patent publication US20220274979A1 (Bayer Pharma Aktiengesellschaft, priority 2018, published 2022)

Biological target: T1, hSOS1 (hSOS1-mediated loading of hK-RasG12C-GDP) (Homo sapiens, UniProt Q07889)
T1 construct: hSOS1 (amino acid 564-1049); made in house; host or cells: E. coli BL21 (DE3)
T1 sequence (Q07889 with tags, fused parts or gaps): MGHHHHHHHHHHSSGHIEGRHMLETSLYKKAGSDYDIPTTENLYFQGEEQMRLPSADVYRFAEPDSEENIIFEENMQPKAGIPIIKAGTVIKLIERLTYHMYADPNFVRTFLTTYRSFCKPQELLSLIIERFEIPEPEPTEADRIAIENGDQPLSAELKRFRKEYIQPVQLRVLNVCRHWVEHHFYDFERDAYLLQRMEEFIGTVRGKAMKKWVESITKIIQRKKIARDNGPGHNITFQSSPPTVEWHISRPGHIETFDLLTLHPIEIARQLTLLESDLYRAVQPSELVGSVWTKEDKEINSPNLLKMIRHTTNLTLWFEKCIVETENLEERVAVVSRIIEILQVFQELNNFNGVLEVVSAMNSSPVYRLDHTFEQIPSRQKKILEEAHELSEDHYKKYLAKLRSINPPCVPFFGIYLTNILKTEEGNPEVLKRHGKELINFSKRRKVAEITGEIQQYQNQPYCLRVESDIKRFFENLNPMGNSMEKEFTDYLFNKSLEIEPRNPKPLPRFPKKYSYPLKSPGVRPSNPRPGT
Experiment: Biochemical Assay 3: hK-RasG12C activation assay by hSOS1 (loading with fluorescent GTP analog, HTRF)
Details: no GTP
Description: Biochemical Assay 3: hK-RasG12C Activation Assay by hSOS1
K-Ras is a small GTPase that can bind GDP and GTP. The guanine nucleotide exchange factor SOS1 catalyzes the activation of K-Ras by promoting the exchange of GDP to GTP. SOS1 binds to K-Ras-GDP thereby opening the GDP-binding pocket to facilitate GDP release. Rebinding of excess nucleotide leads to dissociation of the K-Ras-SOS1 intermediate complex leaving K-Ras loaded with the nucleotide.
This assay quantifies human SOS1-(hSOS1-)mediated loading of human K-Ras^G12C-GDP (hK-RasG12C-GDP) with a fluorescent GTP-analog. Detection of successful loading is achieved by measuring homogenous time-resolved fluorescence resonance energy transfer (HTRF) from antiGST-Terbium (FRET donor) bound to GST-hK-RasG12C (see below) to the loaded fluorescent GTP analog (FRET-acceptor).
The fluorescent GTP-analog EDA-GTP-Dy647P1 (2′/3′-O-(2-Aminoethyl-carbamoyl)-guanosine-5′-triphosphate labelled with Dy647P1 (Dyomics GmbH, Germany)) was synthesized by Jena Biosciences GmbH (Germany) and supplied as a 1 mM aqueous solution.
The assay buffer contained 10 mM HEPES pH 7.4 (Applichem), 150 mM NaCl (Sigma), 5 mM MgCl2 (Sigma), 1 mM DTT (Thermofisher), 0.05% BSA Fraction V, pH 7.0, (ICN Biomedicals), 0.0025% (v/v) Igepal (Sigma).
Concentrations of protein batches used were optimized to be within the linear range of the HTRF signal. A hRas working solution was prepared in assay buffer containing typically 100 nM GST-hK-RasG12C and 2 nM antiGST-Tb (Cisbio, France). A hSOS1 working solution was prepared in assay buffer containing typically 20 nM hSOS1 and 200 nM EDA-GTP-Dy647P1. An inhibitor control solution was prepared in assay buffer containing 200 nM EDA-GTP-Dy647P1 without hSOS1.
Fifty nl of a 100-fold concentrated solution of the test compound in DMSO were transferred into a black microtiter test plate (384 or 1536, Greiner Bio-One, Germany) For this, either a Hummingbird liquid handler (Digilab, Mass., USA) or an Echo acoustic system (Labcyte, Calif., USA) was used.
All steps of the assay were performed at 20° C. A volume of 2.5 μl of the hRas working solution was added to all wells of the test plate using a Multidrop dispenser (Thermo Labsystems). After 10 min. preincubation, 2.5 μl of the hSOS1 working solution were added to all wells except for those wells at the side of the test plate that were subsequently filled with 2.5 μl of the inhibitor control solution. After […] incubation the fluorescence was measured with a Pherastar (BMG, Germany) using the HTRF module (excitation 337 nm, emission 1: 620 nm, emission 2:665 nm).
IC50 values were calculated by 4-Parameter fitting using a commercial software package (Genedata Screener, Switzerland).

## CC(=O)NC1CCN(c2cc3c(N[C@H](C)c4cccc(Br)c4)nc(C)nc3cn2)C1 (mixture of isomers) [Example 42, N-[1-(4-{[(1R)-1-(3-bromophenyl)ethyl]amino}-2-methylpyrido[3,4-d]pyrimidin-6-yl)pyrrolidin-3-yl]acetamide]
  IC50: 0.366 µM

## Cc1nc(NC(C)c2ccc(-c3ccccc3CN(C)C)s2)c2cc(C3CCN(C)C3=O)ncc2n1 (mixture of isomers) [Example 69, 3-(4-{[1-(5-{2-[(dimethylamino)methyl]phenyl}thiophen-2-yl)ethyl]amino}-2-methylpyrido[3,4-d]pyrimidin-6-yl)-1-methylpyrrolidin-2-one]
  IC50: 0.141 µM

## Cc1nc(NC(C)c2ccc(-c3ccccc3CN(C)C)s2)c2cc(C3(O)CCN(C)C3=O)ncc2n1 (mixture of isomers) [Example 85, 3-(4-{[1-(5-{2-[(dimethylamino)methyl]phenyl}thiophen-2-yl)ethyl]amino}-2-methylpyrido[3,4-d]pyrimidin-6-yl)-3-hydroxy-1-methylpyrrolidin-2-one]
  IC50: 0.212 µM

## CCOc1cc2c(NC(C)c3cccc4sccc34)nc(C)nc2cn1 (stereo not drawn) [Example 3, N-[1-(1-benzothiophen-4-yl)ethyl]-6-ethoxy-2-methylpyrido[3,4-d]pyrimidin-4-amine]
  IC50: 0.355 µM

## COc1cc2c(NC(C)c3cccc4sccc34)nc(C)nc2cn1 (stereo not drawn) [Example 4, N-[1-(1-benzothiophen-4-yl)ethyl]-6-methoxy-2-methylpyrido[3,4-d]pyrimidin-4-amine]
  IC50: 0.555 µM

## CCOc1cc2c(N[C@H](C)c3cccc(Br)c3)nc(C)nc2cn1 [Example 5, N-[(1R)-1-(3-bromophenyl)ethyl]-6-ethoxy-2-methylpyrido[3,4-d]pyrimidin-4-amine]
  IC50: 2.15 µM

## CCOc1cc2c(N[C@H](C)c3cccc(Cl)c3)nc(C)nc2cn1 [Example 6]
  IC50: 1.69 µM

## CCOc1cc2c(N[C@H](C)c3cccc(S(C)(=O)=O)c3)nc(C)nc2cn1 [Example 7, 6-ethoxy-2-methyl-N-{(1R)-1-[3-(methylsulfonyl)phenyl]ethyl}pyrido[3,4-d]pyrimidin-4-amine]
  IC50: 2.38 µM

## COc1cc2c(N[C@H](C)c3ccc(F)c(Cl)c3)nc(C)nc2cn1 [Example 8]
  IC50: > 20 µM

## Cc1nc(N[C@H](C)c2ccc(F)cc2)c2cc(F)ncc2n1 [Example 9]
  IC50: > 20 µM

## Cc1nc(N[C@H](C)c2ccc(F)cc2)c2cc(OCC3CCOCC3)ncc2n1 [Example 11, N-[1R)-1-(4-fluorophenypethyl]-2-methyl-6-(tetrahydro-2H-pyran-4-ylmethoxy)-pyrido[3,4-d]pyrimidin-4-amine]
  IC50: 2.49 µM

## COc1cc2c(N[C@H](C)c3ccc(F)c(C4CC4)c3)nc(C)nc2cn1 [Example 12]
  IC50: 8.17 µM

## CCOc1cc2c(N[C@H](C)c3ccc(Br)cc3)nc(C)nc2cn1 [Example 13, N-[(1R)-1-(4-bromophenyl)ethyl]-6-ethoxy-2-methylpyrido[3,4-d]pyrimidin-4-amine]
  IC50: 7.98 µM

## COc1cc2c(NC(C)c3cccc4c3cnn4C)nc(C)nc2cn1 (stereo not drawn) [Example 14, 6-methoxy-2-methyl-N-[1-(1-methyl-1H-indazol-4-yl)ethyl]pyrido[3,4-d]pyrimidin-4-amine]
  IC50: 12.6 µM

## Cc1nc(N[C@H](C)c2ccc(F)cc2)c2cc(OC(C)C)ncc2n1 [Example 15]
  IC50: 8.79 µM

## COc1cc2c(NC(C)c3cccc4nn(C)cc34)nc(C)nc2cn1 (stereo not drawn) [Example 17, 6-methoxy-2-methyl-N-[1-(2-methyl-2H-indazol-4-yl)ethyl]pyrido[3,4-d]pyrimidin-4-amine]
  IC50: ≥ 40 µM

## CCOc1cc2c(N[C@H](C)c3ccc(C#N)cc3)nc(C)nc2cn1 [Example 18, 4-{(1R)-1-[(6-ethoxy-2-methylpyrido[3,4-d]pyrimidin-4-yl)amino]ethyl}benzonitrile]
  IC50: 4.54 µM

## Cc1nc(N[C@H](C)c2cccc(Br)c2)c2nc(OCc3ccccc3)ncc2n1 [Example 20, 6-(benzyloxy)-N-[(1R)-1-(3-bromophenyl)ethyl]-2-methylpyrimido[5,4-d]pyrimidin-4-amine]
  IC50: ≥ 40 µM
